Assay results from the CheMixHub ionic liquid set.

Assay: xn = mol fraction of the nth substance listed

CCC[N+]1(C)CCCC1.N#C[N-]C#N + CCC[N+]1(C)CCCC1.O=S(=O)([N-]S(=O)(=O)C(F)(F)F)C(F)(F)F
333.15 K, 101 kPa
Details	electrical conductivity [S/m]	viscosity [mPa·s]
x1 = 0.25	1.38	16.8
x1 = 0.75	2.72	13.2

CCCCCCCC(=O)[O-].c1c[nH+]c[nH]1 + CCO
101.3 kPa
Details	viscosity [mPa·s]
293.15 K, x2 = 0.1984	53.79
293.15 K, x2 = 0.301	40.4
293.15 K, x2 = 0.5999	14.5
298.15 K, x2 = 0.8989	2.949
303.15 K, x2 = 0.1043	45
303.15 K, x2 = 0.5999	12
303.15 K, x2 = 0.8989	2.686
313.15 K, x2 = 0	36.92
313.15 K, x2 = 0.301	21.5
313.15 K, x2 = 0.5999	9.9
313.15 K, x2 = 0.7006	6.9
318.15 K, x2 = 0.5999	9
318.15 K, x2 = 0.8989	2.125

CC[n+]1ccn(C)c1.COS(=O)(=O)[O-] + CCO
viscosity [mPa·s], 101 kPa
Details	283.15 K	293.15 K	303.15 K	313.15 K	323.15 K
x1 = 0.0561	2.15	1.77	1.48	1.24	1.04
x1 = 0.112	2.99	2.44	2.02	1.7	1.44
x1 = 0.213	5.56	4.37	3.53	2.81	2.36
x1 = 0.3285	9.85	7.62	6.01	4.85	3.98
x1 = 0.356	11.14	8.61	6.78	5.44	4.44
x1 = 0.525	23.46	17.1	12.99	10.15	8.15
x1 = 0.632	38.01	26.49	19.73	14.91	11.58
x1 = 0.7294	55	36.84	26.04	19.5	15
x1 = 0.8202	76.5	49.25	33.81	24.48	18.59
x1 = 0.9108	106.9	66	43.92	30.93	22.87
x1 = 0.9556	124.7	75.7	49.57	34.48	25.22
x1 = 1	141	84.1	57.9	39.54	28.33

CC[n+]1ccn(CCOC)c1.O=S(=O)([O-])C(F)(F)F + CCO
101 kPa
Details	viscosity [mPa·s]
288.15 K, x1 = 0.2996	7.66
293.15 K, x1 = 0.699	35.3
293.15 K, x1 = 0.797	47.3
293.15 K, x1 = 0.899	64.4
298.15 K, x1 = 0.1999	3.6
298.15 K, x1 = 0.797	38.9
303.15 K, x1 = 0.0996	1.934
303.15 K, x1 = 0.1999	3.231
303.15 K, x1 = 1	57.9
308.15 K, x1 = 0.603	14.85
308.15 K, x1 = 0.797	26.79
308.15 K, x1 = 0.899	37.34
313.15 K, x1 = 0.797	22.71
318.15 K, x1 = 0.797	19.43

CCCCn1cc[n+](C)c1.[Cl][Fe-]([Cl])([Cl])[Cl] + CCOC(C)=O
101 kPa
Details	viscosity [mPa·s]
293.15 K, x1 = 0.6001	16.31
298.15 K, x1 = 0.7973	26.3
298.15 K, x1 = 0.9	34.2
303.15 K, x1 = 0.6001	12.31
303.15 K, x1 = 0.7973	22.35
308.15 K, x1 = 0.1999	1.86
308.15 K, x1 = 0.3999	5.26
308.15 K, x1 = 0.6001	10.84
308.15 K, x1 = 0.7973	19.21
308.15 K, x1 = 1	31.9
313.15 K, x1 = 0.1999	1.75
313.15 K, x1 = 0.7973	16.68
318.15 K, x1 = 0.3007	2.76
318.15 K, x1 = 0.3999	4.34
318.15 K, x1 = 0.9	18.34

CC[S+](CC)CCOCCOCCOCC[S+](CC)CC.N#C[N-]C#N.N#C[N-]C#N + CC[n+]1ccn(C)c1.N#C[N-]C#N + O=S(=O)([N-]S(=O)(=O)C(F)(F)F)C(F)(F)F.[Li+]
100 kPa, x1 = 0.2479, x2 = 0.6613
Details	electrical conductivity [S/m]
298 K	0.454
303 K	0.548
313 K	0.811
323 K	1.09
333 K	1.4
343 K	1.78

NCC(O)CN + CC[n+]1ccn(C)c1.[Cl-]
101 kPa, x2 = 0.667
Details	viscosity [mPa·s]
298.15 K	280
303.15 K	200.3
313.15 K	108.2
323.15 K	58.3
333.15 K	38.3

CC[n+]1ccn(C)c1.COS(=O)(=O)[O-] + CN1CCCC1=O
101 kPa
Details	viscosity [mPa·s]
298.15 K, x2 = 0.8502	4.99
303.15 K, x2 = 0.3825	28
303.15 K, x2 = 0.5291	17.6
303.15 K, x2 = 0.9298	2.91
308.15 K, x1 = 0.0115	1.52
308.15 K, x2 = 0.6518	9.5
308.15 K, x2 = 0.718	6.8
313.15 K, x2 = 0.0861	38.1

NCCO + CN1CCCC1=O + CCCC[n+]1ccn(C)c1.O=S(=O)([N-]S(=O)(=O)C(F)(F)F)C(F)(F)F
viscosity [mPa·s], 101 kPa
Details	293.15 K	298.15 K	303.15 K	308.15 K	313.15 K	318.15 K	323.15 K	328.15 K	333.15 K
x1 = 0.1608, x2 = 0.8154	3.357	3.042	2.776	2.553	2.364	2.204	2.068	1.95	1.848
x1 = 0.2089, x2 = 0.7256	4.749	4.206	3.761	3.388	3.089	2.818	2.599	2.41	2.252
x1 = 0.2436, x2 = 0.6371	6.416	5.617	4.959	4.413	3.958	3.575	3.254	2.982	2.752

CCCCCC[n+]1ccn(C)c1.O=S(=O)([N-]S(=O)(=O)C(F)(F)F)C(F)(F)F + CN(C)C=O
298.15 K, 100 kPa
Details	electrical conductivity [S/m]
x1 = 0.06572	0.9
x1 = 0.09821	1.1
x1 = 0.1404	1.2
x1 = 0.1968	1.4
x1 = 0.275	1.2

CCCCCC[n+]1ccn(C)c1.O=S(=O)([N-]S(=O)(=O)C(F)(F)F)C(F)(F)F + CN(CCO)CCO
101 kPa
Details	viscosity [mPa·s]
303.15 K, x2 = 0	58.3
303.15 K, x2 = 0.801	49.3
308.15 K, x2 = 0.0989	45.6
308.15 K, x2 = 0.3999	34
313.15 K, x2 = 0.3999	31.4
313.15 K, x2 = 0.6075	30
313.15 K, x2 = 0.899	36.2
318.15 K, x2 = 0.7049	25.3
323.15 K, x2 = 0.2977	24.1
323.15 K, x2 = 0.7049	22.9

CCCCCC[n+]1ccn(C)c1.O=S(=O)([N-]S(=O)(=O)C(F)(F)F)C(F)(F)F + CO
298.15 K, 100 kPa
Details	electrical conductivity [S/m]
x1 = 0.02978	1.7
x1 = 0.04557	2.1
x1 = 0.06683	2.3
x1 = 0.09663	2.2
x1 = 0.1426	1.9

CCCCCCCC[P+](CC)(CC)CC.O=[N+]([O-])c1c[n-]cn1 + COCCOCCOCCOCCOC
viscosity [mPa·s], 100 kPa
Details	x1 = 0.599	x1 = 0.699	x1 = 0.9	x1 = 1
278.15 K	125	210	–	1270
288.15 K	–	114	–	569
298.15 K	–	–	180	–

CC[n+]1ccn(C)c1.COS(=O)(=O)[O-] + CS(C)=O
viscosity [mPa·s], 100 kPa
Details	298.15 K	303.15 K	308.15 K	313.15 K
x1 = 0.0164	4.16	4.01	3.89	3.67
x1 = 0.0398	7.35	6.81	6.27	5.93
x1 = 0.0602	9.97	9.2	8.55	8.08
x1 = 0.0941	14.18	12.83	12.06	11.28
x1 = 0.1236	17.62	15.85	14.5	13.71
x1 = 0.1519	20.91	18.59	16.92	16.1
x1 = 0.2143	27.4	24.2	21.94	20.73
x1 = 0.2927	34.95	30.43	27.28	25.55
x1 = 0.3737	41.96	36.24	32.09	29.71
x1 = 0.4429	47.4	40.66	35.66	32.71
x1 = 0.5298	53.6	45.69	39.54	35.84
x1 = 0.6072	58.8	49.5	42.55	38.23
x1 = 0.6927	64.3	53.7	45.77	40.24
x1 = 0.7486	67.7	56.3	47.7	41.57
x1 = 0.8263	72.7	60	50.3	43.32
x1 = 0.8944	77	63.2	52.7	44.81
x1 = 0.9396	80.1	65.5	54.3	45.96
x1 = 0.9755	82.5	67.4	55.7	46.87
x1 = 1	84.3	68.7	56.7	47.6

OCCCCCO + C[N+](C)(C)CCO.O=S(=O)([N-]S(=O)(=O)C(F)(F)F)C(F)(F)F
Details	viscosity [mPa·s]
333.15 K, 101 kPa, x1 = 1	20.3

CCCCCC[n+]1ccn(C)c1.[Br-] + C[NH2+]CCC=C1c2ccccc2CCc2ccccc21.[Cl-] + O
viscosity [mPa·s], 100 kPa
Details	288.15 K	298.15 K	308.15 K	318.15 K
x2 = 0, x1 = 0.0001802	1.159	0.926	0.762	0.645
x2 = 0, x1 = 0.0007203	1.165	0.934	0.77	0.643
x2 = 0, x1 = 0.00126	1.171	0.942	0.776	0.66

CCCCCC[n+]1ccn(C)c1.O=S(=O)([N-]S(=O)(=O)C(F)(F)F)C(F)(F)F + ClC(Cl)Cl
electrical conductivity [S/m], 101 kPa
Details	x1 = 0.196	x1 = 0.335	x1 = 0.956	x1 = 0.97	x2 = 0.006
288.5 K	0.462	–	–	0.146	–
318.5 K	–	0.845	0.469	–	0.459

CCCCCC[n+]1ccn(C)c1.[Br-] + NC(N)=O + O
298.15 K, 100 kPa
Details	viscosity [mPa·s]
x2 = 0, x3 = 0.9008	6.89
x2 = 0, x3 = 0.9487	2.88
x2 = 0.008076, x3 = 0.8927	6.77
x2 = 0.008492, x3 = 0.9402	2.97
x2 = 0.01609, x3 = 0.8847	6.7
x2 = 0.01695, x3 = 0.9318	2.98
x2 = 0.02496, x3 = 0.9237	2.95
x2 = 0.02678, x3 = 0.9219	2.96
x2 = 0.03154, x3 = 0.8693	6.78
x2 = 0.03322, x3 = 0.9155	2.98
x2 = 0.03874, x3 = 0.8621	6.76
x2 = 0.0408, x3 = 0.9079	3.02

CCCCCCCCOS(=O)(=O)[O-].CC[n+]1ccn(C)c1 + O
101 kPa, frequency 0.0005 MHz
Details	electrical conductivity [S/m]
263.15 K, x2 = 0.8103	0.26
288.15 K, x2 = 0.7822	0.678
298.15 K, x2 = 0.8236	1.14
303.15 K, x2 = 0.8236	1.32
303.15 K, x2 = 0.8384	1.52
313.15 K, x2 = 0.8103	1.65
323.15 K, x2 = 0.8236	2.2
333.15 K, x2 = 0.7822	2.4
333.15 K, x2 = 0.8236	2.77
343.15 K, x2 = 0.7822	2.9

101 kPa
Details	viscosity [mPa·s]
298.15 K, x2 = 0.8236	63.5
303.15 K, x2 = 0.8236	48.9
303.15 K, x2 = 0.8384	46
313.15 K, x2 = 0.8103	32.07
333.15 K, x2 = 0.7822	15.7
343.15 K, x2 = 0.7822	11.31
